Measurements taken from ChEMBL document CHEMBL1201862, “PubChem BioAssay data set” (2004).
The source made the active and inactive calls.

Key:
[1] = HEp-2 cell cytotoxicity, dose response, cytotoxicity control for RSV inhibitor project, HTS (AID 2410); assay type: functional; details: human respiratory syncytial virus
[2] = biological target: T1, Protein skinhead-1 (Caenorhabditis elegans, UniProt P34707); assay type: functional
T1 sequence (P34707 whole entry): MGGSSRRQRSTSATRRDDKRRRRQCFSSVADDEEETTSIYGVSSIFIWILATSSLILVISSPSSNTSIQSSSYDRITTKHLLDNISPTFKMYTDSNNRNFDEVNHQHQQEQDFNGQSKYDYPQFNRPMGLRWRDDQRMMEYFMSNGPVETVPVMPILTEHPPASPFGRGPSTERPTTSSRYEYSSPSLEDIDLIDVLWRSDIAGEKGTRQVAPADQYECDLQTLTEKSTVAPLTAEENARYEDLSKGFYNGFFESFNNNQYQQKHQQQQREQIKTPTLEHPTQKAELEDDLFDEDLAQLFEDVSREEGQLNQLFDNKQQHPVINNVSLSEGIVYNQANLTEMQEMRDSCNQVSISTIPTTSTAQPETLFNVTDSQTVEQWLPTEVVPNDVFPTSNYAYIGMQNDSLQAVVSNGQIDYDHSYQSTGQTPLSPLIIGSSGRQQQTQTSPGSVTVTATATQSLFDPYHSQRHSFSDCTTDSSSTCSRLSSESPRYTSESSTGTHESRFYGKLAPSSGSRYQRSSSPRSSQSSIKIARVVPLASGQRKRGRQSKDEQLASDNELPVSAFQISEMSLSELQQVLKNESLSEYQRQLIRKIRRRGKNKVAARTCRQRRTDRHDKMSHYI

[3] = biological target: T2, Heat shock factor protein 1 (Mus musculus, UniProt P38532); assay: inhibition of MG132-induced HSE-luciferase signal, confirmation, cell-based, NIH3T3, luminescence, dose retest (AID 2382); assay type: functional;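 further: NIH3T3 fibroblasts with HSF1-driven luciferase reporter stressed by proteasome inhibitor MG132; luminescence from HSF1-driven luciferase expression after 8 hours of MG132 stress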
T2 sequence (P38532 whole entry): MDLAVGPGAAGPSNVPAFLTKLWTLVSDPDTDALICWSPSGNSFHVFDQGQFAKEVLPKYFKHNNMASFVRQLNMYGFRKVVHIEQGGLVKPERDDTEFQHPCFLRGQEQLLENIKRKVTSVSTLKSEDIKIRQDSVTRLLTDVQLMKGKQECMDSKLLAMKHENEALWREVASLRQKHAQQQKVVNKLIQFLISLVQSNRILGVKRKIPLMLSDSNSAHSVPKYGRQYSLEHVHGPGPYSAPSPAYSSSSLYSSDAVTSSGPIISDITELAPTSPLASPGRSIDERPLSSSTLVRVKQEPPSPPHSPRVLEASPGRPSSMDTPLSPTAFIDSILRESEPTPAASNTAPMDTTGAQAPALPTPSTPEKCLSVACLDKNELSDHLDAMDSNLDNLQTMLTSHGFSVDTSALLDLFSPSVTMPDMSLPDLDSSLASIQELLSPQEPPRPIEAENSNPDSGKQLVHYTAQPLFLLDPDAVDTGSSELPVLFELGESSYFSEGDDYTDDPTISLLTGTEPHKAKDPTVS

[4] = biological target: T3, Cytochrome P450 1A2 (Homo sapiens, UniProt P05177);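 further: PubChem cytochrome P450 panel assay, CYP1A2 panel member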
T3 sequence (P05177 whole entry): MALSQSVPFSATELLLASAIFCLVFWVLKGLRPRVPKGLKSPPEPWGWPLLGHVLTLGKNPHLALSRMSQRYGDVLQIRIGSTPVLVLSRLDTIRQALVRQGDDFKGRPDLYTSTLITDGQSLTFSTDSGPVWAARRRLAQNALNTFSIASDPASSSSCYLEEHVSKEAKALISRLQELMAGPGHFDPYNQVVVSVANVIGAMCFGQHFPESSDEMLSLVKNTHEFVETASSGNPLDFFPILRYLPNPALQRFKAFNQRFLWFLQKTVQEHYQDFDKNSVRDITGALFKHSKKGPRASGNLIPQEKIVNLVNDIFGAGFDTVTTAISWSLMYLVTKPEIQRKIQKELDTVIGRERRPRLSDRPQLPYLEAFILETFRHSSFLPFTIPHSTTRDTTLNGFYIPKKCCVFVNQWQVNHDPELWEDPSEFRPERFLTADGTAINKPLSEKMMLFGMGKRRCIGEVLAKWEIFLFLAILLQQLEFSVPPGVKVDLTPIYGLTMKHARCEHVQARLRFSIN

[5] = biological target: Cytochrome P450 2C19 (Homo sapiens, UniProt P33261); assay: Cytochrome panel assay with activity outcomes. Panel member name: p450-cyp2c19 Compounds with AC50 equal or less than 10 uM are considered active; assay type: functional; details: read-out: AC50
[6] = biological target: Cytochrome P450 2C9 (Homo sapiens, UniProt P11712)
[7] = biological target: T2, Heat shock factor protein 1; assay: HSF1 potentiators in luciferase reporter cells, confirmation, cell-based, NIH3T3, luminescence, dose retest (AID 435004); assay type: functional;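 further: stress induced by proteasome inhibitor MG132 added 30 min after compound; luciferase reporter driven by HSF1 response element in NIH3T3 cells; actives raise luminescence as potentiators of the MG132 stress response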
[8] = inhibitors of intracellular T. cruzi replication, confirmation, NIH3T3 host cells, beta-gal luminescence (AID 2044); assay type: functional, cell-based;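 further: intracellular parasites grown in NIH/3T3 mouse fibroblasts as host cells; luminescent beta-galactosidase reporter signal from transgenic T. cruzi replicating inside host cells; inhibitors lower the luminescence signal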
[9] = cytotoxicity toward NIH3T3 fibroblasts, dose response, counter-screen, cell-based, ATP luminescence, mouse fibroblasts (AID 2010); assay type: functional;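 further: cells exposed to compound for about 90 hours before reading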
[10] = biological target: Cytochrome P450 3A4 (Homo sapiens, UniProt P08684);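 further: CYP3A4 tested as one member of a cytochrome P450 panel screen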
[11] = Luminescence Cell-Based Dose Retest to Confirm Inhibitors of Cancer Stem Cells. [Related pubchem assays (depositor defined):AID2717, AID2721]; assay type: functional, Homo sapiens; details: Homo sapiens

Cytochrome P450 3A4, sequence (P08684 whole entry): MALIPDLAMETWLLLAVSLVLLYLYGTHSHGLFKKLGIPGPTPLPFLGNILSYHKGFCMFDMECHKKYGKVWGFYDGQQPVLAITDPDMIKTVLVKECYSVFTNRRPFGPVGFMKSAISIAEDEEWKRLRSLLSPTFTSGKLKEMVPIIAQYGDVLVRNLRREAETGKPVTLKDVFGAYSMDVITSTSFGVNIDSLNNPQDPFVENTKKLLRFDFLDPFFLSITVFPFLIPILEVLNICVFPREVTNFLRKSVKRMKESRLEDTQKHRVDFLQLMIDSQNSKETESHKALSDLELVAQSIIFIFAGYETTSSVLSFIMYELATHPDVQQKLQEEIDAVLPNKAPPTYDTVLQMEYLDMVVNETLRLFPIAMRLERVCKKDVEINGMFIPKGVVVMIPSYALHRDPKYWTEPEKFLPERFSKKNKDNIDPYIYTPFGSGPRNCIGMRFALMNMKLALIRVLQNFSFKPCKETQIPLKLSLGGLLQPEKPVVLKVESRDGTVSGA
Cytochrome P450 2C19, sequence (P33261 whole entry): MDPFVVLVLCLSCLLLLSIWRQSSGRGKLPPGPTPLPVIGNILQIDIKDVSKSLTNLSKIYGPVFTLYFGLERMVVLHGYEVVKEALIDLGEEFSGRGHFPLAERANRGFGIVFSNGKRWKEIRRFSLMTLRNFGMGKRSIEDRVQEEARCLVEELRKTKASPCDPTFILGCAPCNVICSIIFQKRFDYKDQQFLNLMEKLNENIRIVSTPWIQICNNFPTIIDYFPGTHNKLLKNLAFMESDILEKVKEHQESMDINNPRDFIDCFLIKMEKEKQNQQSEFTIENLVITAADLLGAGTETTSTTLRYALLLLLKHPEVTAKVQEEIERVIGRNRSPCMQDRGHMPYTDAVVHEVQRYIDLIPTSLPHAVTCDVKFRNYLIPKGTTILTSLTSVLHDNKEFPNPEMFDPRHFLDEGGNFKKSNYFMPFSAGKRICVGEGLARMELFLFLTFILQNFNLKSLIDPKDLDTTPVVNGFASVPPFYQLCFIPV
Cytochrome P450 2C9, sequence (P11712 whole entry): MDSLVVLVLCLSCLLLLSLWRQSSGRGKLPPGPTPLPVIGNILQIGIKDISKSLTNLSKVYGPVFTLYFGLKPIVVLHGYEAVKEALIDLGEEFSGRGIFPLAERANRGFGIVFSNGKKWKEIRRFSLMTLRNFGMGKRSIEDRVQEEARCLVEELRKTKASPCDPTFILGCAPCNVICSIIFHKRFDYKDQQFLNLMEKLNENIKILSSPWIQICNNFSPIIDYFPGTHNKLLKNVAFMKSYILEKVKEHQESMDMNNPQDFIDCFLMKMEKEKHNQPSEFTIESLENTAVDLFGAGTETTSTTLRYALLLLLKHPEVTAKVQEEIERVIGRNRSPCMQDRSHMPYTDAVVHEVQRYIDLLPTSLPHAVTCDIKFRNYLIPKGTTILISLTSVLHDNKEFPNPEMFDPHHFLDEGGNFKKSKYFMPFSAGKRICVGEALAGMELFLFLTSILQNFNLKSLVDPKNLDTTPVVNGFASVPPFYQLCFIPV

## c1ccc2sc(-c3ccncc3)nc2c1
[1]
  CC50: 25.5 µM (active)
[2]
  IC50: 54.5 µM (inactive)

## CCOC(=O)N1CCN(C(=O)C2CCN(Cc3ccc(OC)cc3OC)CC2)CC1
[3]
  EC50: > 195 µM (not active)

## Cc1nnc(SCCn2c(N3CC(C)CC(C)C3)nc3c2c(=O)n(C)c(=O)n3C)s1 (centres undefined)
[2]
  IC50: > 100 µM (inactive)

## O[C@H](CN1CCN(c2cccc(Cl)c2)CC1)C(c1ccccc1)c1ccccc1
[4]
  AC50: 31.6 µM (inconclusive)

## OC(CNC1CCCC1)COc1ccc(-c2ccccc2)cc1 (centres undefined)
[2]
  IC50: 45.6 µM (active)

## CCCn1nc2cc(C(=O)NCc3ccc(C)cc3)ccc2c1OC
[5]
  AC50: 22.4 µM (inconclusive)
[6]
  AC50: 20 µM (inconclusive)

## CCc1n[nH]c2c1C1(CCN(C(=O)OCc3ccccc3)CC1)C(C#N)=C(N)O2
[7]
  EC50: 33.9 µM (active)

## CSCC[C@H](NC(=O)N1CCn2c1nc1ccccc12)C(=O)NCc1ccc(F)cc1
[7]
  EC50: > 260 µM (inactive)

## COc1cc(N)c(Cl)cc1C(=O)N[C@H]1CCN(CCCOc2ccc(F)cc2)C[C@@H]1OC
[5]
  AC50: 0.794 µM (active)
[4]
  AC50: 25.1 µM (inconclusive)
[6]
  AC50: 1 µM (active)

## CS(=O)(=O)c1ccc(NC(=O)c2ccc3c(c2)S(=O)(=O)N=C2CCCCCN23)cc1
[3]
  EC50: > 195 µM (not active)

## O=C(NCc1ccco1)c1ccccc1-c1ccc(C(F)(F)F)cc1
[3]
  EC50: > 195 µM (not active)

## NC(=O)Cc1ccc2c(c1)[nH]c1ccccc12
[7]
  EC50: > 260 µM (inactive)

## CCCCOCCCN1CC(=O)N2[C@@H](Cc3c([nH]c4ccccc34)C2(C)C)C1=O
[7]
  EC50: > 260 µM (inactive)

## C/C(Cl)=C/Cc1c(C)nc2ccc(C)cc2c1O
[8]
  EC50: 0.324 µM (active)
[9]
  EC50: > 30 µM (not active)
[7]
  EC50: > 260 µM (inactive)

## CC(=O)[C@]1(O)CC[C@@H]2[C@H]3C[C@@H](C)C4=CC(=O)CC[C@@]4(C)[C@H]3[C@@H](O)C[C@]21C
[10]
  AC50: 3.98 µM (inconclusive)
[6]
  AC50: 7.94 µM (inconclusive)

## Cc1ccc(N2C(=O)N(CC(=O)NC(N)=O)C(=O)C2C)cc1 (centres undefined)
[3]
  EC50: > 195 µM (not active)

## O=C(CCn1nc(-c2ccc(Cl)cc2)ccc1=O)N1CCOCC1
[10]
  AC50: 25.1 µM (inconclusive)
[6]
  AC50: 10 µM (inconclusive)

## CC(C)[C@@]1(NC(=O)[C@@H]2C[C@H]3c4cccc5[nH]cc(c45)C[C@@H]3N(C)C2)O[C@]2(O)[C@H]3CCCN3C(=O)CN2C1=O
[5]
  AC50: 5.01 µM (inconclusive)
[6]
  AC50: 6.31 µM (inconclusive)

## CN(C)c1ccc([C@@H]2N([C@H](C#N)c3ccc(N(C)C)cc3)CCCN2[C@@H](C#N)c2ccc(N(C)C)cc2)cc1
[4]
  AC50: 5.01 µM (inconclusive)

## S=C(Nc1cccc(Cl)c1)N(CCCN1CCCC1)Cc1cccn1Cc1ccc(Cl)cc1
[11]
  AC50: 6.16 µM (active)
[7]
  EC50: > 120 µM (inactive)

## Clc1ccsc1-c1ccc2ccccc2n1
[2]
  IC50: 16 µM (active)

## O=C(NCCc1cccc(Cl)c1)c1cc2ccccc2oc1=O
[7]
  EC50: > 260 µM (inactive)

## C=CCn1c(S)nnc1-c1cccc2ccccc12
[3]
  EC50: > 195 µM (not active)

## COC(=O)c1ccc(S(=O)(=O)N2CCCCCC2)cc1
[2]
  IC50: > 100 µM (inactive)

## CC(C)c1ccc(C(=O)CC2(O)C(=O)N(CN3CCOCC3)c3ccccc32)cc1 (centres undefined)
[6]
  AC50: 12.6 µM (inconclusive)

## COCCNC(=O)Cn1cnc2c1c(=O)n(C)c(=O)n2C
[7]
  EC50: > 260 µM (inactive)

## COc1ccc(CNCC(O)COc2ccc(C(C)(C)c3ccccc3)cc2)cc1 (centres undefined)
[11]
  AC50: 3.38 µM (active)
[7]
  EC50: > 260 µM (inactive)

## COc1cccc(C(=O)c2c[nH]c(C(=O)NCc3ccco3)c2)c1
[3]
  EC50: 19.9 µM (active)

## O=C(Cn1nc(-c2ccccc2)ccc1=O)N1CCCCC1
[3]
  EC50: > 195 µM (not active)

## COc1ccccc1CNC(=O)C(C)NS(=O)(=O)c1ccc(Br)cc1 (centres undefined)
[3]
  EC50: > 195 µM (not active)

## CC[C@H]1C2=C3C(CC[C@H]4C(OCc5ccc(F)cc5C(F)(F)F)OC[C@](C)([C@@H]34)N(C(=O)OC(C)(C)C)C2)C(COC(C)=O)C1COC(C)=O (some centres undefined)
[5]
  AC50: 15.8 µM (inconclusive)
[10]
  AC50: 2.51 µM (inconclusive)
[6]
  AC50: 31.6 µM (inconclusive)

## CCOC(=O)C[n+]1c(C)csc1C
[3]
  EC50: > 195 µM (not active)

## O=C1c2ccccc2C(O)N1c1ccccc1 (centres undefined)
[3]
  EC50: > 195 µM (not active)

## COc1ccc(-c2cc(-c3ccccc3)[nH]n2)c(O)c1
[2]
  IC50: > 100 µM (inactive)

## O=C(Cn1cc([N+](=O)[O-])cn1)NCC1CCCO1 (centres undefined)
[3]
  EC50: > 195 µM (not active)

## Cn1c(=O)c2cn(-c3ccccc3)cc2n(C)c1=O
[5]
  AC50: 17.8 µM (inconclusive)
[6]
  AC50: 25.1 µM (inconclusive)

## C[C@@H](CN)CC(=O)O
[4]
  AC50: 39.8 µM (inconclusive)

## C=CCNC(=S)Nc1sc2c(c1C#N)CCCC2
[3]
  EC50: > 195 µM (not active)

## CCOC(=O)c1c[nH]nc1C(F)(F)F
[7]
  EC50: > 260 µM (inactive)

## O=C(Nc1ccc(-c2cn3ccsc3n2)cc1)C1COc2ccccc2O1 (centres undefined)
[2]
  IC50: > 100 µM (inactive)

## Cc1oc2ccc(OCc3c(F)cccc3Cl)cc2c1C(=O)O
[3]
  EC50: > 195 µM (not active)

## COC(=O)[C@@H]1[C@@H]2C[C@H]3c4[nH]c5cc(OC)ccc5c4CCN3C[C@@H]2C[C@H](OC(=O)/C=C\c2cc(OC)c(OC)c(OC)c2)[C@H]1OC
[4]
  AC50: 3.16 µM (inconclusive)

## N/C(S)=N/CCC[C@@H](N)C(=O)O
[10]
  AC50: 0.2 µM (inconclusive)
[6]
  AC50: 15.8 µM (inconclusive)

## Cc1ccc(NC(=O)COc2ccc(Br)cc2CO)cc1S(=O)(=O)N1CCOCC1
[2]
  IC50: > 100 µM (inactive)

## COc1ccc(CNC(=O)Oc2ccccc2)cc1Cl
[7]
  EC50: 62.3 µM (active)

## CC(C)(C)NC(=O)COC(=O)c1cncc(Br)c1
[4]
  AC50: 20 µM (inconclusive)
[10]
  AC50: 15.8 µM (inconclusive)

## CC(C)C(=O)NCCc1nc(-c2ccccc2Cl)no1
[2]
  IC50: > 100 µM (inactive)

## CCN(CC)S(=O)(=O)c1cccc(C(=O)N[C@H](C(=O)OCC(=O)NC(=O)NC)C(C)C)c1
[10]
  AC50: 14.1 µM (inconclusive)
[6]
  AC50: 0.708 µM (inconclusive)

## CCOC(=O)CCCN
[4]
  AC50: 6.31 µM (inconclusive)

## N[C@@H](Cc1cccnn1)C(=O)O
[4]
  AC50: 3.16 µM (inconclusive)

## CC(C)NC(=O)C1(C)CSCC(=O)N1CCCN1CCOCC1 (centres undefined)
[2]
  IC50: > 100 µM (inactive)

## COc1cc(C(=O)Nc2nccs2)cc(OC)c1OC
[2]
  IC50: > 100 µM (inactive)

## Cc1ccc(/C=N/NC(=O)Cn2nccc2C)o1
[5]
  AC50: 11.2 µM (inconclusive)
[4]
  AC50: 15.8 µM (inconclusive)

## N#Cc1cnn2c(=O)c3c([nH]c12)CCCC3
[6]
  AC50: 11.2 µM (inconclusive)

## COc1ccc(C2C(C(C)=O)=C(C)N=c3s/c(=C\c4cc(C)n(C)c4C)c(=O)n32)c(OC)c1 (centres undefined)
[2]
  IC50: > 100 µM (inactive)

## CCCCCCCCCCCCCCCC(=O)C(F)(F)F
[4]
  AC50: 31.6 µM (inconclusive)
